Measured values from publication PMC3233971 (Amino acids, 2010).
Residues, ends and D or L forms follow the SMILES beside them. No end group written: not given here. *: point of attachment. IRDye800CW = CC1(C)C(/C=C/C2=C(Oc3ccc(S(=O)(=O)O)cc3)C(=C/C=C3/N(CCCCS(=O)(=O)O)c4ccc(S(=O)(=O)O)cc4C3(C)C)/CCC2)=[N+](CCCCCC(=O)*)c2ccc(S(=O)(=O)[O-])cc21

Experiments:
LS174T tumor [1] = assay: Near-infrared fluorescence imaging of LS174T tumor-bearing mice; conditions: 4 h after i.v. injection; 1 nmol dye/mouse
[2] = system: LS174T human colorectal cancer cells; conditions: 300 μg/ml peptide, 48 h exposure, absorbance 570 nm, n = 6
[3] = system: human umbilical endothelial cells (HUVEC); conditions: 300 μg/ml peptide, 48 h exposure, absorbance 570 nm, n = 6
LS174T tumor [4] = type: in vivo, mouse; conditions: 20 mg/kg i.p. every other day, 3 doses; 12 days after the optical imaging

CC(C)C[C@H](NC(=O)[C@@H](NC(=O)[C@H](Cc1c[nH]c2ccccc12)NC(=O)CCCCC[N+]1=C(C=CC2=C(Oc3ccc(S(=O)(=O)O)cc3)C(=CC=C3N(CCCCS(=O)(=O)O)c4ccc(S(=O)(=O)O)cc4C3(C)C)CCC2)C(C)(C)c2cc(S(=O)(=O)[O-])ccc21)[C@@H](C)O)C(=O)N[C@@H](CCCNC(=N)N)C(=O)N1CCC[C@H]1C(=O)N[C@H](C(=O)N[C@@H](CC(C)C)C(=O)N[C@@H](Cc1c[nH]cn1)C(=O)N[C@H](C(=O)N[C@@H](CC(=O)O)C(=O)N[C@@H](Cc1c[nH]cn1)C(=O)N[C@@H](C)C(=O)O)[C@@H](C)O)[C@@H](C)O [scrambled peptide dye conjugate] (IRDye800CW-WTLRPTLHTDHA-OH; N-terminus and C-terminus assumed)
renal clearance in NIR fluorescence images (LS174T tumor [1]): cleared through the kidneys much faster than the BRP peptide

LLADTTHHRPWT [BRP]
cell viability (MTT) [2]: 98.3 ± 12.1%
cell viability (MTT) [3]: 92.2 ± 2.4%

bevacizumab: humanized monoclonal antibody directed against human VEGF
tumor volume (LS174T tumor [4]): 476.6 mm^3
